Structures can show the parent of a compound that is named as a salt. Where two headings read alike, the source gives them in different places.
Legend:
E. cloacae P99 = assay: MIC of compound alone, broth microdilution; format: cell-based; details: Enterobacter cloacae; strain P99; compound alone; read-out: MIC compounds of the invention alone
Protocol: (§1) Log phase bacterial suspensions were adjusted to a final density of 5×10^5 cfu/mL in cation-adjusted Mueller-Hinton broth (Becton-Dickinson) and added to each well (98 μL). Microplates were incubated for 16-20 h at 35° C. in ambient air. The MIC of the compounds was defined as the lowest concentration of said compounds that prevented bacterial growth as read by visual inspection.

E. coli 190317 = assay: MIC of compound alone, broth microdilution; format: cell-based; details: Escherichia coli; strain 190317; compound alone; read-out: MIC compounds of the invention alone
Protocol: as §1

K. pneumoniae 6299 = assay: MIC of compound alone, broth microdilution; format: cell-based; details: Klebsiella pneumoniae; strain 6299; compound alone; read-out: MIC compounds of the invention alone
Protocol: as §1

K. pneumoniae BAA-1898 = assay: MIC of compound alone, broth microdilution; format: cell-based; details: Klebsiella pneumoniae, BAA1898; strain BAA-1898; compound alone; read-out: MIC compounds of the invention alone
Protocol: as §1

P. aeruginosa CIP107051 = assay: MIC of compound alone, broth microdilution; format: cell-based; details: Pseudomonas aeruginosa; strain CIP107051; compound alone; read-out: MIC compounds of the invention alone
Protocol: as §1

CMY-37 = CMY-37 (Citrobacter freundii, UniProt P05193); details: read-out: IC50 β-lactamase CMY-37
AmpC (P99) = AmpC (P99) (Enterobacter cloacae, UniProt P05364); assay: biochemical
AmpC (PAE) = AmpC (PAE) (Pseudomonas aeruginosa, UniProt P24735); assay: biochemical
OXA-15 = OXA-15 (Pseudomonas aeruginosa, UniProt Q51574); assay: biochemical
TEM-1 = TEM-1 (Escherichia coli, UniProt P62593)
SHV-1 = SHV-1 (Klebsiella pneumoniae, UniProt P0AD64)
CTX-M-15 = CTX-M-15 (Escherichia coli, UniProt Q9EXV5)
KPC-2 = KPC-2 (Klebsiella pneumoniae, UniProt Q9F663)
OXA-1 = OXA-1 (Escherichia coli, UniProt P13661)
OXA-11 = OXA-11 (Pseudomonas aeruginosa, UniProt Q06778)
OXA-48 = OXA-48 (Klebsiella pneumoniae, UniProt Q6XEC0)
[1] = class (C), nitrocefin 200 μM, 30-min pre-incubation, enzyme 0.2 nM

Row | Structure (SMILES) | MIC (E. cloacae P99) | MIC (E. coli 190317) | MIC (K. pneumoniae 6299) | MIC (K. pneumoniae BAA-1898) | MIC (P. aeruginosa CIP107051) | IC50 (CMY-37) | IC50 (AmpC (P99)) | IC50 (AmpC (PAE)) | IC50 (OXA-15) | IC50 (TEM-1) | IC50 (SHV-1) | IC50 (CTX-M-15) | IC50 (KPC-2) | IC50 (OXA-1) | IC50 (OXA-11) | IC50 (OXA-48) | IC50 (CMY-37; [1])
1 | O=C1N2CC(n3cc(F)cn3)=CC(C2)N1OS(=O)(=O)[O-].[Na+] (centres unmarked) [Example 14, sodium (7-oxo-3-(4-fluoropyrazol-1-yl)-1,6-diazabicyclo[3.2.1]oct-3-en-6-yl) sulfate] | 16 µg/mL | 4 µg/mL | 16 µg/mL | 8 µg/mL | > 32 µg/mL | 10 nM | 17 nM | 21 nM | 52 nM | 0.87 nM | 4 nM | 1.8 nM | 17 nM | 82 nM | 34 nM | 8.6 nM | –
2 | NS(=O)(=O)c1cnn(C2=CC3CN(C2)C(=O)N3OS(=O)(=O)[O-])c1.[Na+] (centres unmarked) [Example 16, sodium [7-oxo-3-(4-sulfamoylpyrazol-1-yl)-1,6-diazabicyclo[3.2.1]oct-3-en-6-yl]sulfate] | 32 µg/mL | 8 µg/mL | > 32 µg/mL | 32 µg/mL | > 32 µg/mL | 21 nM | 13 nM | 180 nM | 42 nM | 0.56 nM | 3.4 nM | 1.4 nM | 4.6 nM | 100 nM | 650 nM | 12 nM | –
3 | O=C1N2CC(n3ccc(F)n3)=CC(C2)N1OS(=O)(=O)[O-].[Na+] (centres unmarked) [Example 18, sodium [7-oxo-3-(3-fluoropyrazol-1-yl)-1,6-diazabicyclo[3.2.1]oct-3-en-6-yl]sulfate] | 8 µg/mL | 1 µg/mL | 4 µg/mL | 8 µg/mL | > 32 µg/mL | 18 nM | 24 nM | 43 nM | 78 nM | 0.43 nM | 2.8 nM | 0.65 nM | 13 nM | 96 nM | 46 nM | 8.2 nM | –
4 | NC(=O)c1ccn(C2=CC3CN(C2)C(=O)N3OS(=O)(=O)[O-])n1.[Na+] (centres unmarked) [Example 19, sodium [3-(3-carbamoylpyrazol-1-yl)-7-oxo-1,6-diazabicyclo[3.2.1]oct-3-en-6-yl]sulfate] | 8 µg/mL | 4 µg/mL | 16 µg/mL | 16 µg/mL | > 32 µg/mL | 41 nM | 19 nM | 170 nM | 61 nM | 0.38 nM | 1.8 nM | 0.9 nM | 6.2 nM | 110 nM | 27 nM | 5.2 nM | –
5 | O=C1N2CC(n3cc(C(F)(F)F)cn3)=CC(C2)N1OS(=O)(=O)[O-].[Na+] (centres unmarked) [Example 22, sodium [7-oxo-3-[4-(trifluoromethyl)pyrazol-1-yl]-1,6-diazabicyclo[3.2.1]oct-3-en-6-yl]sulfate] | > 32 µg/mL | > 32 µg/mL | > 32 µg/mL | > 32 µg/mL | > 32 µg/mL | 12 nM | 17 nM | 78 nM | 9.1 nM | 0.21 nM | 1.1 nM | 0.55 nM | 3 nM | 180 nM | 220 nM | 4.6 nM | –
6 | O=C(Nc1nccs1)c1ccn(C2=CC3CN(C2)C(=O)N3OS(=O)(=O)[O-])n1.[Na+] (centres unmarked) [Example 25, sodium [7-oxo-3-[3-(thiazol-2-ylcarbamoyl)pyrazol-1-yl]-1,6-diazabicyclo[3.2.1]oct-3-en-6-yl]sulfate] | > 32 µg/mL | > 32 µg/mL | > 32 µg/mL | > 32 µg/mL | > 32 µg/mL | 9.2 nM | 9.4 nM | 130 nM | 12 nM | 0.29 nM | 1.2 nM | 0.43 nM | 2.5 nM | 37 nM | 4.2 nM | 1.7 nM | –
7 | CC(=O)c1ccn(C2=CC3CN(C2)C(=O)N3OS(=O)(=O)[O-])n1.[Na+] (centres unmarked) [Example 28, sodium (7-oxo-3-(3-acetylpyrazol-1-yl)-1,6-diazabicyclo[3.2.1]oct-3-en-6-yl) sulfate] | > 32 µg/mL | 16 µg/mL | > 32 µg/mL | > 32 µg/mL | > 32 µg/mL | 37 nM | 10 nM | 200 nM | 30 nM | 0.37 nM | 2.2 nM | 0.5 nM | 4.8 nM | 64 nM | 29 nM | 3.8 nM | –
8 | O=C(NC1CCNCC1)c1ccn(C2=CC3CN(C2)C(=O)N3OS(=O)(=O)O)n1 (centres unmarked) [Example 32, (7-oxo-3-[3-(4-piperidylcarbamoyl)pyrazol-1-yl]-1,6-diazabicyclo[3.2.1]oct-3-en-6-yl) hydrogen sulfate] | 16 µg/mL | 8 µg/mL | 32 µg/mL | 16 µg/mL | > 32 µg/mL | – | 29 nM | 210 nM | 39 nM | 1.1 nM | 8.2 nM | 1 nM | 6.9 nM | 79 nM | 27 nM | 1.5 nM | 59 nM
9 | O=C(Nc1ccn(C2=CC3CN(C2)C(=O)N3OS(=O)(=O)[O-])n1)c1nccs1.[Na+] (centres unmarked) [Example 34, sodium {7-oxo-3-[3-(thiazole-2-carbonylamino)pyrazol-1-yl]-1,6-diazabicyclo[3.2.1]oct-3-en-6-yl}sulfate] | > 32 µg/mL | > 32 µg/mL | > 32 µg/mL | > 32 µg/mL | > 32 µg/mL | 6.2 nM | 10 nM | 56 nM | 34 nM | 1 nM | 3.1 nM | 0.92 nM | 8.5 nM | 130 nM | 13 nM | 9.4 nM | –
10 | O=C(Nc1ncco1)c1ccn(C2=CC3CN(C2)C(=O)N3OS(=O)(=O)[O-])n1.[Na+] (centres unmarked) [Example 37, sodium [7-oxo-3-[3-(oxazol-2-ylcarbamoyl)pyrazol-1-yl]-1,6-diazabicyclo[3.2.1]oct-3-en-6-yl]sulfate] | > 32 µg/mL | 8 µg/mL | > 32 µg/mL | > 32 µg/mL | > 32 µg/mL | 15 nM | 9.7 nM | 200 nM | 32 nM | 0.5 nM | 3.2 nM | 0.46 nM | 2.9 nM | 73 nM | 21 nM | 2.5 nM | –
11 | NCCNC(=O)c1cnn(C2=CC3CN(C2)C(=O)N3OS(=O)(=O)O)c1 (centres unmarked) [Example 38, [3-[4-(2-aminoethylcarbamoyl)pyrazol-1-yl]-7-oxo-1,6-diazabicyclo[3.2.1]oct-3-en-6-yl]hydrogen sulfate] | 16 µg/mL | 4 µg/mL | > 32 µg/mL | > 32 µg/mL | 32 µg/mL | – | 34 nM | 210 nM | 17 nM | 0.43 nM | 2.5 nM | 0.7 nM | 7.5 nM | 180 nM | 50 nM | 3.2 nM | 38 nM
